Results from the supplement of paper PMC10307832.

Key:
Experiment in all cases: relative viability (nuclei count vs DMSO), 5 days (fraction); higher = more cells survive
NVP-TAE684 + Crizotinib = compound: COc1cc(N2CCC(N3CCN(C)CC3)CC2)ccc1Nc1ncc(Cl)c(Nc2ccccc2S(=O)(=O)C(C)C)n1 [NVP-TAE684] + C[C@@H](Oc1cc(-c2cnn(C3CCNCC3)c2)cnc1N)c1c(Cl)ccc(F)c1Cl [Crizotinib] (partner 1 µM)
Method in brief: (§1)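 Lung cancer cell lines were pin-tool dosed in 1536-well plates on the day after seeding, with either a lone drug or a fixed anchor-drug dose plus five library-drug doses (not always all listed) in √10 steps. Nuclei were counted on 4× images after 5 days. Relative viability is the ratio of treated-well to vehicle-well nuclei counts, with each value a median of duplicate plates.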

Vandetanib + Linsitinib = compound: COc1cc2/c(=N/c3ccc(Br)cc3F)nc[nH]c2cc1OCC1CCN(C)CC1 [Vandetanib] + C[C@]1(O)C[C@@H](c2nc(-c3ccc4ccc(-c5ccccc5)nc4c3)c3c(N)nccn32)C1 [Linsitinib] (partner 1 µM)
Method in brief: as §1

NVP-TAE684 + Phenformin = compound: COc1cc(N2CCC(N3CCN(C)CC3)CC2)ccc1Nc1ncc(Cl)c(Nc2ccccc2S(=O)(=O)C(C)C)n1 [NVP-TAE684] + N=C(N)NC(=N)NCCc1ccccc1 [Phenformin] (partner 250 µM)
Method in brief: as §1

CUDC-101 + Dasatinib = compound: C#Cc1cccc(Nc2ncnc3cc(OC)c(OCCCCCCC(=O)NO)cc23)c1 [CUDC-101] + Cc1nc(Nc2ncc(C(=O)Nc3c(C)cccc3Cl)s2)cc(N2CCN(CCO)CC2)n1 [Dasatinib] (partner 0.075 µM)
Method in brief: as §1

Row | Cell Line | relative viability (NVP-TAE684 + Crizotinib; first compound 0.2 µM) | relative viability (NVP-TAE684 + Crizotinib; first compound 0.6325 µM) | relative viability (NVP-TAE684 + Crizotinib; first compound 2 µM) | relative viability (Vandetanib + Linsitinib; first compound 0.02 µM) | relative viability (Vandetanib + Linsitinib; first compound 0.06325 µM) | relative viability (Vandetanib + Linsitinib; first compound 0.2 µM) | relative viability (Vandetanib + Linsitinib; first compound 0.6325 µM) | relative viability (Vandetanib + Linsitinib; first compound 2 µM) | relative viability (NVP-TAE684 + Phenformin; first compound 0.2 µM) | relative viability (NVP-TAE684 + Phenformin; first compound 0.6325 µM) | relative viability (NVP-TAE684 + Phenformin; first compound 2 µM) | relative viability (CUDC-101 + Dasatinib; first compound 0.01 µM) | relative viability (CUDC-101 + Dasatinib; first compound 0.03162 µM) | relative viability (CUDC-101 + Dasatinib; first compound 0.1 µM) | relative viability (CUDC-101 + Dasatinib; first compound 0.3162 µM) | relative viability (CUDC-101 + Dasatinib; first compound 1 µM)
1 | IA-LM | 0.626 | 0.692 | 0.62 | 0.616 | 0.567 | 0.616 | 0.593 | 0.673 |  |  |  |  |  |  |  | 
2 | LC-2-ad | 0.419 | 0.433 | 0.315 | 0.818 | 0.787 | 0.841 | 0.746 | 0.417 | 0.574 | 0.5 | 0.456 | 0.737 | 0.879 | 0.638 | 0.69 | 0.298
3 | LCLC-97TM1 | 0.216 | 0.336 | 0.0982 | 0.197 | 0.171 | 0.171 | 0.171 | 0.136 | 0.4 | 0.382 | 0.113 | 0.821 | 0.804 | 0.864 | 0.855 | 0.596
4 | LCLC-103H | 1.16 | 1.08 | 1 | 1.09 | 1 | 1.23 | 0.929 | 1.03 | 0.297 | 0.356 | 0.276 | 0.524 | 0.384 | 0.451 | 0.478 | 0.46
5 | LK-2 | 0.228 | 0.223 | 0.203 | 1.08 | 0.513 | 0.909 | 0.9 | 0.319 | 0.364 | 0.238 | 0.233 | 0.298 | 0.389 | 0.25 | 0.284 | 0.157
6 | LOU-NH91 | 0.7 | 0.725 | 0.592 | 0.954 | 0.733 | 0.679 | 0.685 | 0.629 | 0.631 | 0.601 | 0.531 | 0.596 | 0.509 | 0.469 | 0.486 | 0.38
7 | LU99A | 0.651 | 0.576 | 0.262 | 0.487 | 0.529 | 0.599 | 0.522 | 0.55 | 0.912 | 0.886 | 0.659 | 0.596 | 0.508 | 0.507 | 0.64 | 0.432
8 | LXF-289 | 0.852 | 0.791 | 0.706 | 0.949 | 0.942 | 0.957 | 0.971 | 0.967 | 0.555 | 0.52 | 0.443 | 0.248 | 0.203 | 0.245 | 0.394 | 0.182
9 | NCI-H23 | 0.463 | 0.451 | 0.254 | 0.685 | 0.531 | 0.519 | 0.57 | 0.425 | 0.987 | 0.757 | 0.518 | 0.777 | 0.795 | 0.826 | 0.856 | 0.733
10 | NCI-H322M | 0.973 | 0.758 | 0.845 | 0.832 | 0.841 | 0.924 | 0.846 | 0.894 | 0.731 | 0.705 | 0.52 | 0.28 | 0.243 | 0.224 | 0.236 | 0.276
11 | NCI-H358 | 0.441 | 0.347 | 0.081 | 0.764 | 0.708 | 0.201 | 0.501 | 0.301 | 0.285 | 0.226 | 0.0829 | 0.157 | 0.164 | 0.166 | 0.16 | 0.131
12 | NCI-H441 | 0.661 | 0.659 | 0.315 | 0.597 | 0.538 | 0.498 | 0.592 | 0.472 | 0.574 | 0.755 | 0.258 | 0.691 | 0.523 | 0.683 | 0.646 | 0.678
13 | NCI-H460 | 1.16 | 0.831 | 0.247 | 0.733 | 0.758 | 0.0194 | 0.757 | 0.58 | 0.354 | 0.547 | 0.0633 | 0.555 | 0.506 | 0.524 | 0.602 | 0.44
14 | NCI-H520 | 0.668 | 0.651 | 0.348 | 0.886 | 1.1 | 0.942 | 0.904 | 0.912 | 0.553 | 0.451 | 0.242 | 0.196 | 0.166 | 0.192 | 0.259 | 0.218
15 | NCI-H522 |  |  |  |  |  |  |  |  | 0.685 | 0.777 | 0.608 | 0.931 | 0.758 | 0.928 | 0.842 | 0.596
16 | NCI-H1299 | 1.01 | 0.959 | 0.623 | 0.912 | 0.916 | 0.997 | 0.957 | 1 |  |  |  |  |  |  |  | 
17 | NCI-H1395 |  |  |  | 1.1 | 1.09 | 0.934 | 0.968 | 1.18 | 0.462 | 0.411 | 0.404 | 0.418 | 0.385 | 0.438 | 0.434 | 0.363
18 | NCI-H1623 |  |  |  |  |  |  |  |  | 0.552 | 0.598 | 0.484 | 0.561 | 0.501 | 0.429 | 0.676 | 0.486
19 | NCI-H1650 | 0.899 | 0.89 | 1 |  |  |  |  |  | 0.505 | 0.285 | 0.148 | 0.302 | 0.292 | 0.321 | 0.324 | 0.221
20 | NCI-H1703 | 0.743 | 0.516 | 0.144 | 0.543 | 0.73 | 1.14 | 0.637 | 0.535 |  |  |  |  |  |  |  | 
21 | NCI-H1793 |  |  |  | 0.87 | 0.74 | 0.819 | 0.897 | 0.587 | 0.35 | 0.371 | 0.26 | 0.393 | 0.371 | 0.342 | 0.415 | 0.371
22 | NCI-H2170 | 1.31 | 1.15 | 0.996 |  |  |  |  |  | 0.404 | 0.364 | 0.358 | 0.633 | 0.512 | 0.583 | 0.475 | 0.363
23 | NCI-H2342 |  |  |  |  |  |  |  |  | 0.532 | 0.614 | 0.361 | 0.316 | 0.301 | 0.325 | 0.298 | 0.241
24 | SW 900 |  |  |  |  |  |  |  |  | 0.592 | 0.474 | 0.385 | 0.455 | 0.68 | 0.791 | 0.602 | 0.618
